# Test results as given in US12371454B2, “Cyclic peptide compound having Kras inhibitory action” (priority 2019, dated 2025).
# Starred links: 1 amine or outer side, 2 acyl side, 3 side chain; linkers in the order of their positions; H or OH if unused. Positions of bridges follow the written chain, without caps; N, C: chain ends. Non-standard residues stand in square brackets, D forms with d. Residues, ends and D or L forms follow the SMILES beside them. *: point of attachment. hPhe(3,5-F2-4-CF3) = N[C@@H](CCc1cc(F)c(C(F)(F)F)c(F)c1)C(=O)O; hPhe(3-Cl-4-CF3) = N[C@@H](CCc1ccc(C(F)(F)F)c(Cl)c1)C(=O)O; NMePhe(4-CF3) = CN[C@@H](Cc1ccc(C(F)(F)F)cc1)C(=O)O; NEtPhe(4-Me) = CCN[C@@H](Cc1ccc(C)cc1)C(=O)O; NMePhe(4-Cl) = CN[C@@H](Cc1ccc(Cl)cc1)C(=O)O; NMePhe(2-Cl) = CN[C@@H](Cc1ccccc1Cl)C(=O)O; NMedβ3hAla = C[C@H](CC(=O)[*:2])N(C)[*:1]; X32 = O=C(CN(CCN1CCC(F)(F)CC1)[*:1])[*:2]; NMeGly(cPent) = CN[C@H](C(=O)O)C1CCCC1; Phe(3-I) = N[C@@H](Cc1cccc(I)c1)C(=O)O; Pro(4,4-F2) = O=C(O)[C@@H]1CC(F)(F)CN1; Ala(cPent) = N[C@@H](CC1CCCC1)C(=O)O; NMeCha = CN[C@@H](CC1CCCCC1)C(=O)O; hhPhe = N[C@@H](CCCc1ccccc1)C(=O)O; Hyp = O=C(O)[C@@H]1C[C@@H](O)CN1; NMeChg = CN[C@H](C(=O)O)C1CCCCC1; NMeF = CN[C@@H](Cc1ccccc1)C(=O)O; NMeI = CC[C@H](C)[C@H](NC)C(=O)O; NMeD = CN[C@@H](CC(=O)O)C(=O)O; NMeL = CN[C@@H](CC(C)C)C(=O)O; NMeV = CN[C@H](C(=O)O)C(C)C; d(β3hA) = C[C@@H](N)CC(=O)O; NMeS = CN[C@@H](CO)C(=O)O; NMeA = CN[C@@H](C)C(=O)O; Piperidide = C1CCN(*)CC1; Pyrrolidide = C1CCN(*)C1; Ac5c = NC1(C(=O)O)CCCC1; Aze = O=C(O)[C@@H]1CCN1; Ac4c = NC1(C(=O)O)CCC1; Sar = CNCC(=O)O
# Molecular target: T1, Kras and SOS1 (biotin-tagged human Kras loaded with GDP, His-tagged human SOS1) (Homo sapiens, UniProt P01116, G12D)
# T1 construct: made in house; host or cells: E. coli (stated for Kras only)
# Assay: Protein-protein interaction inhibition between Kras and SOS1 (KrasGl2D-SOS PPI) using AlphaScreen
# Type: binding
# Conditions: AlphaScreen; biotin-tagged human Kras loaded with GDP, His-tagged human SOS1; read-out: KRAS G12D-SOS PPI IC50
# In short: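 Donor beads (nickel) hold His-SOS1; acceptor beads (streptavidin) hold biotin-Kras bound to GDP. Signal measured at 520-620 nm following 680 nm excitation.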
# T1 sequence (P01116 1-188 isoform P01116-2 G12D): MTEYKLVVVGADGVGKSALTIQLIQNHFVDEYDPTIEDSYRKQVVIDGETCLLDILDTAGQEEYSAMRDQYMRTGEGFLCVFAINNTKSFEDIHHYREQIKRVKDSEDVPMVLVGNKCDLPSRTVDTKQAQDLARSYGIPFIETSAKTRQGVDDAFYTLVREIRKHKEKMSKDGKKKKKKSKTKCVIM
row,SMILES,IC50 [nM]
1,CC[C@H](C)[C@@H]1NC(=O)[C@H](C)N(C)C(=O)C[C@@H](C(=O)N2CCCC2)N(C)C(=O)[C@H](C(C)C)N(C)C(=O)[C@H](C)NC(=O)[C@H](Cc2ccccc2Cl)N(C)C(=O)[C@H](CCc2ccc(C(F)(F)F)c(Cl)c2)NC(=O)CN(C)C(=O)[C@H](CC2CCCCC2)N(C)C(=O)CN(C)C(=O)CN(C)C1=O [Compound 624] ([NMeA]I[Sar][Sar][NMeCha][Sar][hPhe(3-Cl-4-CF3)][NMePhe(2-Cl)]A[NMeV][NMeD]-Pyrrolidide; lactam N-11),160
2,CCO[C@@H]1C[C@H]2C(=O)NC3(CCC3)C(=O)N(C)[C@@H]([C@@H](C)CC)C(=O)N(C)[C@H](C)CC(=O)N(C)[C@@H](CC(C)C)C(=O)N[C@@H]([C@@H](C)CC)C(=O)N(C)[C@@H](C)C(=O)N3CC[C@H]3C(=O)N(CC)[C@@H](Cc3ccc(C)cc3)C(=O)N(C)CC(=O)N[C@@H](CCc3ccc(C(F)(F)F)c(Cl)c3)C(=O)N2C1 [Compound 626] (cyclo([Ac4c][NMeI][NMedβ3hAla][NMeL]I[NMeA][Aze][NEtPhe(4-Me)][Sar][hPhe(3-Cl-4-CF3)][Hyp](Et))),2.4
3,CC(C)C[C@H]1C(=O)N[C@@H](CC2CCCC2)C(=O)N(C)CC(=O)N(C)CC(=O)N(C)[C@@H](CC2CCCCC2)C(=O)N(C)CC(=O)N[C@@H](CCc2ccc(C(F)(F)F)c(Cl)c2)C(=O)N2CCC[C@H]2C(=O)NC2(CCCC2)C(=O)N(C)[C@@H](C(C)C)C(=O)N(C)[C@H](C(=O)N2CCCCC2)CC(=O)N1C [Compound 627] ([NMeL][Ala(cPent)][Sar][Sar][NMeCha][Sar][hPhe(3-Cl-4-CF3)]P[Ac5c][NMeV][NMeD]-Piperidide; lactam N-11),13
4,"CC[C@H](C)[C@@H]1NC(=O)[C@H](CC(C)C)N(C)C(=O)C[C@@H](C)N(C)C(=O)[C@H](C2CCCC2)N(C)C(=O)C2(CCCC2)NC(=O)[C@@H]2CC(F)(F)CN2C(=O)[C@H](CCc2cc(F)c(C(F)(F)F)c(F)c2)NC(=O)CN(C)C(=O)[C@H](CC2CCCCC2)N(C)C(=O)[C@@H]2CCN2C(=O)[C@H](C)N(C)C1=O [Compound 628] (cyclo([Ac5c][NMeGly(cPent)][NMedβ3hAla][NMeL]I[NMeA][Aze][NMeCha][Sar][hPhe(3,5-F2-4-CF3)][Pro(4,4-F2)]))",20
5,CC[C@H](C)[C@@H]1NC(=O)[C@H](CC(C)C)N(C)C(=O)C[C@@H](C(=O)N2CCCCC2)N(C)C(=O)[C@H]([C@@H](C)CC)N(C)C(=O)C2(CCCC2)NC(=O)[C@@H]2CCCN2C(=O)[C@H](CCc2ccc(C(F)(F)F)c(Cl)c2)NC(=O)CN(C)C(=O)[C@H](Cc2ccc(C(F)(F)F)cc2)N(C)C(=O)[C@@H]2CCN2C(=O)[C@H](C)N(C)C1=O [Compound 630] ([NMeL]I[NMeA][Aze][NMePhe(4-CF3)][Sar][hPhe(3-Cl-4-CF3)]P[Ac5c][NMeI][NMeD]-Piperidide; lactam N-11),1.7
6,CC[C@H](C)[C@@H]1NC(=O)[C@H](C)N(C)C(=O)C[C@@H](C(=O)N2CCCCC2)N(C)C(=O)[C@H](C2CCCCC2)N(C)C(=O)C2(CCCC2)NC(=O)[C@@H]2CCCN2C(=O)[C@H](CCCc2ccccc2)NC(=O)CN(C)C(=O)[C@H](CC2CCCCC2)N(C)C(=O)CN(C)C(=O)CN(C)C1=O [Compound 633] ([NMeA]I[Sar][Sar][NMeCha][Sar][hhPhe]P[Ac5c][NMeChg][NMeD]-Piperidide; lactam N-11),120
7,CC[C@H](C)[C@@H]1NC(=O)[C@H](CC(C)C)N(C)C(=O)C[C@@H](C)NC(=O)[C@H](C(C)C)N(C)C(=O)C2(CCCC2)NC(=O)[C@@H]2CCCN2C(=O)[C@H](CCc2ccc(C(F)(F)F)c(Cl)c2)NC(=O)CN(C)C(=O)[C@H](CC2CCCCC2)N(C)C(=O)CN(C)C(=O)CN(CCN2CCC(F)(F)CC2)C1=O [Compound 635] (cyclo([Ac5c][NMeV][d(β3hA)][NMeL]I[X32][Sar][NMeCha][Sar][hPhe(3-Cl-4-CF3)]P)),190
8,CC[C@H](C)[C@@H]1NC(=O)[C@H](COC)N(C)C(=O)C[C@@H](C(=O)N2CCCCC2)N(C)C(=O)[C@H](C(C)C)N(C)C(=O)C2(CCCC2)NC(=O)[C@@H]2CCCN2C(=O)[C@H](CCc2ccc(C(F)(F)F)c(Cl)c2)NC(=O)CN(C)C(=O)[C@H](CC2CCCCC2)N(C)C(=O)[C@@H]2CCN2C(=O)[C@H](C)N(C)C1=O [Compound 636] ([NMeS](Me)I[NMeA][Aze][NMeCha][Sar][hPhe(3-Cl-4-CF3)]P[Ac5c][NMeV][NMeD]-Piperidide; lactam N-11),1.1
9,CC[C@H](C)[C@@H]1NC(=O)[C@H](C)N(C)C(=O)C[C@@H](C(=O)N2CCCCC2)NC(=O)[C@H](CC(C)C)N(C)C(=O)[C@H](Cc2ccccc2)N(C)C(=O)[C@H](CC(C)C)NC(=O)[C@H](Cc2cccc(I)c2)NC(=O)CN(C)C(=O)[C@H](Cc2ccc(Cl)cc2)N(C)C(=O)CN(C)C(=O)CN(C)C1=O [Compound 637] ([NMeA]I[Sar][Sar][NMePhe(4-Cl)][Sar][Phe(3-I)]L[NMeF][NMeL]D-Piperidide; lactam N-11),26
